Values joined by “and” are separate entries in the source; they are usually repeats but may differ in a detail not shown here. Equal values may be shown once.
Key:
[1] = system: androgentic alopecia and telogen effluvium in Women; test: Comparative analysis of clinical trial results in women versus standard of care, adjusted to 24 weeks; type: in vivo, human
[2] = system: androgenetic alopecia and telogen effluvium in Men; test: Comparative analysis of clinical trial results in men versus standard of care, adjusted to 24 weeks; type: in vivo, human
[3] = system: procaspase-8, caspase-3, procaspase-9, Bax, p53, Bcl-2, Bcl-XL; details: mouse model of hair loss; cited from earlier work
[4] = system: human dermal papilla stem cells (HDPSCs); test: MTT assay of HDPSC growth/proliferation in culture; type: cell-based; details: for MTT signal (absorbance at 570 nm), mean relative to Control 1.00: n = 6; for Change vs Control (stem cells, MTT): Table 5e; for Change in Stem Cells (MTT signal, mean relative to Control 1.00): n = 29-30
Description: Passage 3 human dermal papilla stem cells (HDPSCs) from a person were purchased from Sigma-Aldrich (Burlington, ON, Canada) and all work was performed under Brock University Research Ethics Board approval (File 15-138). The cells were grown on collagen-coated plates in a 50:50 mixture of Dulbecco's modified Eagles medium (DMEM):Ham's F12 media (Sigma) supplemented with 10% fetal bovine serum (FBS), 1% Gluta-Max™, 0.1% penicillin/streptomycin, 20 ng/mL human fibroblast growth factor, and 10 ng/mL human epidermal growth factor (complete medium). Cell cultures were maintained in incubators set to 5% CO2, 37° C. and 100% humidity. Experiments were performed under conditions of unregulated O2 (18-19%), except where indicated. Cells initially underwent 5-7 passages and were then stored frozen in vials of one million cells each in the above medium supplemented with 10% dimethylsulfoxide (DMSO) and stored in liquid nitrogen. For each experiment, a single vial was thawed, grown overnight, and used to seed 96-well plates.
Botanical extracts and Biotin were screened for their ability to stimulate HDPSC growth in culture using a 96-well plate format with MTT assay as an endpoint. Cells were treated for 72 h with various concentrations and combinations (as indicated, range; 1×10^−1-1×10^−5) of extracts (Table 5a). All the ingredients were able to stimulate growth or cell proliferation above control to varying rates and by varied concentrations.
Cell proliferation was assessed by MTT [3-(4,5-dimethylthiazol-2-yl)-2,5-diphenyltetrazolium bromide] assay according to the manufacturer's recommendations. HDPSCs were seeded onto collagen-coated 96-well plates at~2000 cells/well and grown in complete medium overnight. The next day, indicated concentrations of botanical extracts were added to individual wells.
For all constituents, lyophilized extracts (botanicals) or oil (Biotin) were initially dissolved in PBS at the following concentrations: Biotin 0.25 mg/mL; grapeseesd 7.5 mg/mL; skullcap 1.7 mg/mL; eclipta 3.0 mg/mL. These solutions were sterilized by passing through a 0.45 μm syringe filter. The following dilutions of these solutions, referred to as “Stock Solutions”, were then used for experimental treatments in cell culture media: Biotin (1:100); grapeseed (1:1000); skullcap (1:1000); eclipta (1:100). DMEM media and extracts were refreshed each day. The following day, the MT assay was performed to evaluate cell growth. For this, all media/extract was removed from wells and replaced with phenol-red free DMEM. The cells were incubated for 2 h at 37° C. in a tissue culture incubator. Solubilization solution was then applied to lyse cells and the mixture was triturated repeatedly. The solubilized solutions from each well were then transferred to a fresh 96-well plate and absorbance read at 570 nm. Experiments were tested for 3 different concentration models and one was repeated three times at 5% oxygen and three times at 18% oxygen.
Botanical extracts of grapeseed, skullcap and eclipta and Biotin were screened for their ability to stimulate HDPSC growth in culture using a 96-well plate format with MT assay as an endpoint. Cells were treated for 72 h with various concentrations and combinations with further stock dilutions in the range; 10^−1-10^−5 of the extracts. […] (See Tables 5a, b, c, d, e, f, and g).

[5] = system: Wnt/beta-Catenin signaling; test: TopFlash/FopFlash luciferase assay of Wnt/beta-Catenin signaling in transfected HDPSCs; type: cell-based, human
Description: The cells were then seeded onto a collagen coated 96-well plate (white opaque with clear bottom, Greiner Bio-one 655098) using 2500 cells per well on average with 200 μL supplemented D-MEM. […] In a 1.5 or 2 mL centrifuge tube, 60 μL FuGene® 6 was added to 500 μL DMEM (with no supplements or antibiotics) medium and mixed gently, then incubated for 5 min. 1) and 2) were combined and mixed gently, then incubated for 20 min at room temperature with occasional gentle mixing by hand. Old medium was removed from all wells and replaced with 100 μL fresh supplemented D-MEM. […] was then added to each well and mixed gently by pipette. Medium was changed after 4-6 h with 100 μL fresh supplemented DMEM. […] The treatments were performed three times once a day for a total of three days of treatment. Medium was removed from each well and wells were washed with 50 μL room temperature PBS so that no colour could be seen leftover. 20 μL lysis solution was added to each well and hand shaken every few minutes for a total of 15 mins. The fluorescence spectrophotometer (Varian Cary Eclipse model) was set to: • Data mode: Bio/Chemi-luminescence • Emission wavelength: 560.00 nm • Stop time: 0.8 mins • PMT Detector Voltage: […] 3 of the duplicates of the wells from 3) were used to count the cells in each well and estimate a count for each type of extract. Stimulation of stem cell growth and proliferation can be achieved by activation of the Wnt/beta-Catenin signaling pathway. Having confirmed proliferation of […] by exposure to grapeseed, skullcap, eclipta and Biotin and combinations thereof, a series of studies were conducted to detect and measure the upregulation of the Wnt/beta-Catenin protein as the activation mechanism of the HDPSC proliferation. The method selected for the Wnt/beta-Catenin protein studies was transfection with Topflash and Fopflash plasmids followed by measuring luciferase activity by bioluminescence assays. Topflash and Fopflash plasmids were obtained as bacterial stab cultures from Add gene. Plasmid DNA was purified using the Norgen Biotek kit (info). […] Old medium was removed and replaced with 100 μL fresh complete medium. 20 μL of DNA/FuGENETM 6 mixture was added and mixed gently by pipette. After 4-6 h, medium was removed and replaced with 100 μL fresh complete medium. Botanical extracts were then added to each well. Treatments lasted 72 h with media/extracts refreshed every 24 h. Activation of Wnt/beta-Catenin signaling was assayed as luciferase activity using standard bioluminescence assays. Media from each well was removed and cells were washed twice with 50 μL PBS. 20 μL of cell lysis solution was then added to each well and the plate was incubated at room temperature for 15 min. Luminescence at 560±10 nm was measured using a Varian Cary Eclipse fluorescence spectrophotometer. […] Following transfection, cells were treated for three days as for the MTT assay and then assayed for luciferase activity using standard assays. […] To evaluate whether the extract combinations with Biotin identified in FIG. 1 activate Wnt/beta-Catenin signaling, […] were transfected with Topflash plasmid, which contains the luciferase cDNA and several tandem repeats of the Wnt/beta-Catenin response element.^230 Following transfection, cells were treated for three days as for the MTT assay and then assayed for luciferase activity using standard assays.

male pattern baldness = details: human, in vivo; cited from earlier work

Nc1cc(N2CCCCC2)nc(N)[n+]1[O-] [5% minoxidil, minoxidil]
Efficacy Factor Multiple vs 2% Minoxidil [1]: 1.0
Efficacy Factor Multiple vs 2% Minoxidil [2]: 1.9

CC(C)(O)[C@@H]1CC[C@](C)([C@H]2[C@@H](O)C[C@@]3(C)[C@@H]4C[C@H](O[C@@H]5O[C@H](CO)[C@@H](O)[C@H](O)[C@H]5O)[C@H]5C(C)(C)[C@@H](O[C@@H]6OC[C@@H](O)[C@H](O)[C@H]6O)CC[C@@]56C[C@@]46CC[C@]23C)O1 [Astragaloside IV]
effect on Bax, p53, Bcl-2 and Bcl-XL [3]: down-regulation of Bax and p53 (pro-apoptotic molecules), and up-regulation of the anti-apoptotic Bcl-2 and Bcl-XL molecules
effect on procaspase-8, caspase-3 and procaspase-9 [3]: blocked the procaspase-8, resulting in the inhibition of the pro-apoptosis enzymes caspase-3 and procaspase-9 activities

Nc1cc(N2CCCCC2)nc(N)[n+]1[O-] [2% minoxidil, minoxidil]
Efficacy Factor Multiple vs 2% Minoxidil [1]: 1.0
Efficacy Factor Multiple vs 2% Minoxidil [2]: 1.0

O=C(O)CCCC[C@@H]1SC[C@@H]2NC(=O)N[C@@H]21 [Biotin]
HDPSC growth in the MTT assay, result in words ([4]; 72 h, stock dilutions 10^−1-10^−5): statistically significant reduction in the cell population
MTT signal (absorbance at 570 nm), mean relative to Control 1.00 ([4]; Table 5b, dilution 1/10^3, 5% oxygen, 72 h): 1.12
MTT signal (absorbance at 570 nm), mean relative to Control 1.00 ([4]; Table 5b, dilution 1/10^4, 5% oxygen, 72 h): 0.95
MTT signal (absorbance at 570 nm), mean relative to Control 1.00 ([4]; Table 5b, dilution 1/10^5, 5% oxygen, 72 h): 0.69
MTT signal (absorbance at 570 nm), mean relative to Control 1.00 ([4]; Table 5c, dilution 1/10^3, 5% oxygen, 72 h): 0.76
MTT signal (absorbance at 570 nm), mean relative to Control 1.00 ([4]; Table 5c, dilution 1/10^4, 5% oxygen, 72 h): 0.70
MTT signal (absorbance at 570 nm), mean relative to Control 1.00 ([4]; Table 5c, dilution 1/10^5, 5% oxygen, 72 h): 0.95
Change vs Control (stem cells, MTT) ([4]; dilution 1/10^3, 5% oxygen): 52.0%
Change vs Control (stem cells, MTT) ([4]; dilution 1/10^5, 5% oxygen): −21.0%
Change in Stem Cells (MTT signal, mean relative to Control 1.00) ([4]; Table 5d, dilution of stock 1/10^4, 5% oxygen, 72 h): 1.09
Change in Stem Cells (MTT signal, mean relative to Control 1.00) ([4]; Tables 5f/5g, dilution of stock 1/10^3, 18% oxygen, 72 h): 0.99
Change in Stem Cells (MTT signal, mean relative to Control 1.00) ([4]; Tables 5f/5g, dilution of stock 1/10^4, 18% oxygen, 72 h): 1.21
Change in Stem Cells (MTT signal, mean relative to Control 1.00) ([4]; Tables 5f/5g, dilution of stock 1/10^5, 18% oxygen, 72 h): 0.98
Change in Stem Cells (MTT signal, mean relative to Control 1.00) ([4]; Tables 5d/5e, dilution of stock 1/10^3, 5% oxygen, 72 h): 1.52
Change in Stem Cells (MTT signal, mean relative to Control 1.00) ([4]; Tables 5d/5e, dilution of stock 1/10^5, 5% oxygen, 72 h): 0.79
HDPSC population reduced by ([4]; stock dilution 10^−5): 21%
HDPSC Proliferation (MTT, means % relative to Control = 100%) ([4]; stock dilution 10^−5, 5% oxygen, 72 h): 79%
relative effect on Wnt/beta-Catenin Signaling (Control=100) ([5]; No Biotin, 18% oxygen, 72 h): 97
luciferase activity in TopFlash transfected HDPSCs, individual replicate measurements (single treatments) ([5]; Table 9b, replicates 1-28, 18% oxygen, 72 h): 21.57 arbitrary luminescence values and 17.5 arbitrary luminescence values and 14.29 arbitrary luminescence values and 19.58 arbitrary luminescence values (2×) and 23.45 arbitrary luminescence values and 26.25 arbitrary luminescence values and 19.99 arbitrary luminescence values and 20.75 arbitrary luminescence values (2×) and 12.46 arbitrary luminescence values and 7.884 arbitrary luminescence values and 11.65 arbitrary luminescence values and 12.51 arbitrary luminescence values (2×) and 16.28 arbitrary luminescence values and 20.14 arbitrary luminescence values and 20.65 arbitrary luminescence values and 10.28 arbitrary luminescence values and 7.63 arbitrary luminescence values and 10.94 arbitrary luminescence values and 15.57 arbitrary luminescence values and 18.62 arbitrary luminescence values and 20.5 arbitrary luminescence values and 14.24 arbitrary luminescence values and 15.72 arbitrary luminescence values and 22.03 arbitrary luminescence values and 23.3 arbitrary luminescence values
luciferase activity in TopFlash transfected HDPSCs, individual replicate measurements (combination experiment with Biotin) ([5]; Table 9d, replicates 1-21, 18% oxygen, 72 h): 79.5782 arbitrary luminescence values and 105.8972 arbitrary luminescence values and 78.0728 arbitrary luminescence values and 83.6682 arbitrary luminescence values and 87.4832 arbitrary luminescence values and 90.9168 arbitrary luminescence values and 94.2910 arbitrary luminescence values and 100.5561 arbitrary luminescence values and 22.6868 arbitrary luminescence values and 41.6603 arbitrary luminescence values and 37.0416 arbitrary luminescence values and 33.2163 arbitrary luminescence values and 44.2139 arbitrary luminescence values and 48.4257 arbitrary luminescence values and 95.4836 arbitrary luminescence values and 110.3368 arbitrary luminescence values and 109.6925 arbitrary luminescence values and 129.5662 arbitrary luminescence values and 112.3295 arbitrary luminescence values
luciferase activity in TopFlash transfected HDPSCs, mean (single treatments) ([5]; Tables 9a/9b, 18% oxygen, 72 h, 560 ± 10 nm, 27-28 replicates): 17.0 ± 0.9 arbitrary luminescence values and 17.02 arbitrary luminescence values
luciferase activity in TopFlash transfected HDPSCs, mean (combination experiment with Biotin) ([5]; Tables 9c/9d, 18% oxygen, 72 h, 18-20 replicates): 79.2 ± 7.3 arbitrary luminescence values and 79.2167 arbitrary luminescence values
relative effect on Wnt/beta-Catenin Signaling (Control=100) ([5]; With Biotin, 18% oxygen, 72 h): 99
% Change vs Control / Wnt/β-catenin Signal Upregulation of Combinations vs Control ([5]; combination with Biotin (or Biotin alone), dilution 10^−3, 18% oxygen): −1.0%
effect of Biotin on Wnt/beta-Catenin signaling upregulated by botanical extracts ([5]; tested in combination with botanical extracts): attenuating or inhibiting effect

procyanidin
adverse side effects (male pattern baldness): without any adverse side effects
